Assay results: PubChem BioAssay AID504455 (Sanford-Burnham Center for Chemical Genomics, 2011)
The source made the active and inactive calls.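 The calls were made as follows: active = compounds whose mean IC50 is below 20 µM; inactive = the rest.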

target: Apelin receptor (Homo sapiens) (UniProt P35414); assay: blockers of apelin-13-driven APJ signaling – cell-based, CHO-K1 AGTRL-1, PathHunter luminescence, set 6, SAR follow-up (AID 504455); details: CHO-K1 APJ beta-arrestin PathHunter, apelin-13 antagonism
Sequence (P35414 whole entry, looked up): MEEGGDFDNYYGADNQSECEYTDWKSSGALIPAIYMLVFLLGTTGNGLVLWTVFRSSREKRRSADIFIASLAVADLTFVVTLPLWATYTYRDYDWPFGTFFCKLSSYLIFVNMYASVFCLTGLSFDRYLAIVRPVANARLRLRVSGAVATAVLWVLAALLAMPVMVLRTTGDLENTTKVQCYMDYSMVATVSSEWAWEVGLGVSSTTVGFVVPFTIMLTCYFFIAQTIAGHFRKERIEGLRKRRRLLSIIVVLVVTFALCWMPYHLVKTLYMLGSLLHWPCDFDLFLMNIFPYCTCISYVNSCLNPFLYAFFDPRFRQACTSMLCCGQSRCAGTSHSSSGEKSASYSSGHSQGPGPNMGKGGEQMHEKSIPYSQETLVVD

IC50	SMILES
3.11 µM	Cc1ccnc(SCc2cc(=O)c(OC(=O)c3ccc([N+](=O)[O-])cc3)co2)n1
> 79 µM (inactive)	Cc1ccnc(SCc2cc(=O)c(OC(=O)c3ccccc3)co2)n1
10.9 µM	Cc1ccc(C(=O)Oc2coc(CSc3ncccn3)cc2=O)cc1[N+](=O)[O-]
11.5 µM	Cc1ccnc(SCc2cc(=O)c(OC(=O)c3ccc(C#N)cc3)co2)n1
9.77 µM	N#Cc1ccc(C(=O)Oc2coc(CSc3ncccn3)cc2=O)cc1
